In brackets after ≈: the same amount, converted by molar mass. Where two headings read alike, the source gives them in different places.
Assays:
[1] = system: Schistosoma mansoni 21-day-old schistosomules; test: Effect on 21-day-old schistosomules in infected mice; format: in vivo; details: single 200 mg/kg per os, 21-day-old schistosomules; for % reduction of schistosomule growth at day 21 after per os application of 200 mg/kg, FWR (%): female worm reduction rate; for % reduction of schistosomule growth at day 21 after per os application of 200 mg/kg, TWR (%): total worm reduction rate
Protocol: Mice were infected with 100 Schistosoma mansoni cercariae on day 21 post-treatment. Each group was treated per os with trioxolanes at a single dose of 200 mg/kg. […] All groups were killed 4 weeks after treatment and the liver and intestine were removed and separated. The liver and intestine were compressed and alive male and female worms could be seen and counted. The effect of the compounds was evaluated by mean total and female worm burden.

[2] = system: ANKA strain of P. berghei; test: Single dose STI in vivo screen in infected mice; parameters: species or system Plasmodium berghei; details: for Survival (days) 10 mg/kg po: single 10 mg/kg po in 3% ethanol and 7% Tween 80; for Survival (days) 10 mg/kg po / Survival (days) 10 mg/kg SSV po / Survival (days) 10 mg/kg sc: untreated 6-7 days; for Activity (%) 10 mg/kg po: single 10 mg/kg po in 3% ethanol and 7% Tween 80 on day 1 post-infection; for Survival (days) 10 mg/kg SSV po: single 10 mg/kg po in SSV; for Activity (%) 10 mg/kg SSV po: single 10 mg/kg po in standard suspending vehicle (SSV) on day 1 post-infection; for Survival (days) 10 mg/kg sc: single 10 mg/kg sc in 3% ethanol and 7% Tween 80; for Activity (%) 10 mg/kg sc: single 10 mg/kg sc in 3% ethanol and 7% Tween 80 on day 1 post-infection
[3] = system: chloroquine-sensitive NF54 strain of P. falciparum; test: In vitro antimalarial semiautomated microdilution assay ([3H]-hypoxanthine incorporation), NF54 strain; format: cell-based, Plasmodium falciparum; details: Plasmodium falciparum
Summary of the method: (§1)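 Semiautomated microdilution against intraerythrocytic P. falciparum from asynchronous stock cultures, with growth tracked by [3H]-hypoxanthine incorporation. IC50 values were estimated by Logit regression analysis.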

P. berghei ANKA strain = test: Divided 3x3 mg/kg and 3x1 mg/kg po doses in infected mice; format: in vivo, Plasmodium berghei; details: for Cured infected mice at the 3×3 mg/kg dose: 3 mg/kg po (SSV) on days 1, 2, 3 post-infection; for Activity (%): percent reduction of parasitemia vs control on day 4
Protocol: Moro NMRI male mice (Fu Albino specific pathogen free) weighing 18±2 g were infected intravenously (i.v.) with 2×10^7 P. berghei ANKA strain-infected erythrocytes from donor mice on day 0 of the experiment. From donor mice with circa 30% parasitemia, heparinized blood was taken and diluted in physiological saline to 10^8 parasitized erythrocytes per ml. An aliquot (0.2 ml) of this suspension was injected i.v. into experimental and control groups of mice. […] Throughout the experiments, mice were kept in groups of three or five animals in Makrolon type II cages in an air-conditioned animal room at 22 to 23° C.
They were administered per os (p.o.) in a total volume of 0.01 ml per gram of mouse. The activity of the compound was determined by a variety of methods outlined in subsequent sections. Survival time was also recorded, and survival to day 30 post-infection was considered to be a cure.
The second experiment consists of administration of divided 3×3 mg/kg and 3×1 mg/kg po doses administered on days 1, 2, and 3 post-infection. On day 4 post-infection, blood smears of all animals were prepared and stained with Giemsa. […] Compounds were administered orally in the SSV vehicle.

[4] = system: chloroquine-resistant K1 strain of P. falciparum; test: In vitro antimalarial semiautomated microdilution assay ([3H]-hypoxanthine incorporation), K1 strain; format: cell-based, Plasmodium falciparum; details: Plasmodium falciparum; chloroquine-resistant K1 strain, 72 h incubation; read-out: IC50 (ng/ml) K1
Summary of the method: as §1

[5] = percent reduction in parasitemia on day 3
[6] = percent reduction in parasitemia on day 3, hydrochloride, 10 mg/kg
[7] = 3 × 1 mg/kg p.o. SSV on days 1, 2, 3 post-infection
[8] = 3 × 3 mg/kg p.o. SSV on days 1, 2, 3 post-infection

Structure (SMILES)	% reduction of schistosomule growth at day 21 after per os application of 200 mg/kg, FWR (%) [1] [%]	% reduction of schistosomule growth at day 21 after per os application of 200 mg/kg, TWR (%) [1] [%]	Survival (P. berghei ANKA strain; [7]) [days]	Activity (%) (P. berghei ANKA strain; [7])	Survival (P. berghei ANKA strain; [8]) [days]	Activity (%) (P. berghei ANKA strain; [8])	other results
ON=C1CCC2(CC1)OOC1(O2)C2CC3CC(C2)CC1C3 (stereo not shown) [OZ16]	77	78	–	–	–	–	–
c1ccc(CON=C2CCC3(CC2)OOC2(O3)C3CC4CC(C3)CC2C4)cc1 (stereo not shown) [OZ19]	74	77	–	–	–	–	–
C1CC2(CCO1)OOC1(O2)C2CC3CC(C2)CC1C3 (stereo not shown) [OZ22]	76	75	–	–	–	–	–
CC1(C)CC(C)(C)CC2(C1)OOC1(O2)C2CC3CC(C2)CC1C3 (stereo not shown) [OZ26]	40	37	–	–	–	–	–
CC(C)(C)ON=C1CCC2(CC1)OOC1(O2)C2CC3CC(C2)CC1C3 (stereo not shown) [OZ28]	87	81	–	–	–	–	–
O=C(NN=C1CCC2(CC1)OOC1(O2)C2CC3CC(C2)CC1C3)Nc1ccccc1 (stereo not shown) [OZ30]	12	16	–	–	–	–	–
CC1(C)CCC2(CC1)OOC1(O2)C2CC3CC(C2)CC1C3 (stereo not shown) [OZ33]	14	28	–	–	–	–	–
CC(C)(C)OC(=O)N1CCC2(CC1)OOC1(O2)C2CC3CC(C2)CC1C3 (stereo not shown) [OZ35]	63	73	–	–	–	–	–
CON=C1CC2CC3(CC2C1)OOC1(O3)C2CC3CC(C2)CC1C3 (stereo not shown) [OZ37]	53	63	–	–	–	–	–
CS(=O)(=O)N1CCC2(CC1)OOC1(O2)C2CC3CC(C2)CC1C3 (stereo not shown) [OZ56]	66	69	–	–	–	–	–
CC1(O)CCC2(CC1)OOC1(O2)C2CC3CC(C2)CC1C3 (stereo not shown) [OZ90]	79	81	–	–	–	–	–
CC(C)(C)CC(=O)N1CCC2(CC1)OOC1(O2)C2CC3CC(C2)CC1C3 (stereo not shown) [OZ111, Adamantane-2-spiro-3′-8′-(3′,3′-dimethylbutanoyl)-1′,2′,4′-trioxa-8′-azaspiro[4.5]decane]	68	71	–	–	–	–	Survival (days) 10 mg/kg po [2]: 7.7 days; Activity (%) 10 mg/kg po [2, 5]: 98%; Survival (days) 10 mg/kg SSV po [2]: 6.3 days; Activity (%) 10 mg/kg SSV po [2, 5]: 79%; Survival (days) 10 mg/kg sc [2]: 8.3 days; Activity (%) 10 mg/kg sc [2, 5]: 99.94%
NC[C@H]1CC[C@]2(CC1)OOC1(O2)C2CC3CC(C2)CC1C3 (stereo partly shown) [OZ163]	80	–	–	–	–	–	IC50 ([3]; NF54, 72 h, read-out: IC50 (ng/ml) NF54, chloroquine-sensitive NF54 strain, 72 h incubation): 0.2 ng/mL (≈ 0.682 nM); Survival (days) 10 mg/kg po ([2]; hydrochloride, 10 mg/kg): 8.0 days; Activity (%) 10 mg/kg po [2, 6]: 99.90%; Survival (days) 10 mg/kg SSV po ([2]; hydrochloride, 10 mg/kg): 9.0 days; Activity (%) 10 mg/kg SSV po [2, 6]: 99.94%; Survival (days) 10 mg/kg sc ([2]; hydrochloride, 10 mg/kg): 9.7 days; Activity (%) 10 mg/kg sc [2, 6]: 100%
O=C(NC[C@H]1CC[C@]2(CC1)OO[C@]1(O2)C2CC3CC(C2)CC1C3)N1CCNCC1 [OZ329]	–	–	–	–	–	–	IC50 ([3]; chloroquine-sensitive NF54 strain, 72 h incubation, read-out: IC50 (ng/ml) NF54): 0.68 ng/mL (≈ 1.68 nM); Survival (days) 3 mg/kg SSV po ([2]; single 3 mg/kg po in SSV): 9.2 days; Activity (%) 3 mg/kg SSV po ([2]; single 3 mg/kg po in SSV, percent reduction in parasitemia on day 3): 99.50%; Survival (days) 10 mg/kg SSV po [2]: 11.2 days; Activity (%) 10 mg/kg SSV po [2, 5]: 99.97%; Cured infected mice at the 3×3 mg/kg dose (P. berghei ANKA strain): 2/5; IC50 [4]: 0.43 ng/mL (≈ 1.06 nM)
NC1CCN(C(=O)C[C@H]2CC[C@]3(CC2)OO[C@]2(O3)C3CC4CC(C3)CC2C4)CC1 [OZ339]	–	–	–	–	–	–	Survival (days) 3 mg/kg SSV po ([2]; single 3 mg/kg po in SSV): 9.2 days; Survival (days) 10 mg/kg SSV po [2]: 10.2 days; Cured infected mice at the 3×3 mg/kg dose (P. berghei ANKA strain): 3/5
Oc1ccc(C2CCC3(CC2)OOC2(O3)C3CC4CC(C3)CC2C4)cc1 (stereo not shown) [compound 288]	–	–	8.4	49	10.2	99	–
CCOC(=O)CNCC1CCC2(CC1)OOC1(O2)C2CC3CC(C2)CC1C3.CS(=O)(=O)O (stereo not shown) [compound 290]	–	–	6.8	14	10.6	93	–
O=C1CN(C(=O)CC2CCC3(CC2)OOC2(O3)C3CC4CC(C3)CC2C4)CCN1 (stereo not shown) [compound 296]	–	–	7.8	49	9.4	94	–
O=C(CC1CCC2(CC1)OOC1(O2)C2CC3CC(C2)CC1C3)N1CCC(O)CC1 (stereo not shown) [compound 297]	–	–	6.4	22	9.4	89	–
NS(=O)(=O)c1ccc(NCC2CCC3(CC2)OOC2(O3)C3CC4CC(C3)CC2C4)cc1 (stereo not shown) [compound 298]	–	–	11	93	16.4	99.99	–
O=c1ccn(CC2CCC3(CC2)OOC2(O3)C3CC4CC(C3)CC2C4)cc1 (stereo not shown) [compound 302]	–	–	13.4	87	13.4	99.51	–
Cc1ccc(S(=O)(=O)O)cc1.NCCNC(=O)CC1CCC2(CC1)OOC1(O2)C2CC3CC(C2)CC1C3 (stereo not shown) [compound 305]	–	–	9.6	87	12.2	99.91	–
NC(=O)CNC(=O)CC1CCC2(CC1)OOC1(O2)C2CC3CC(C2)CC1C3 (stereo not shown) [compound 306]	–	–	11	85	7.6	99.75	–
CS(=O)(=O)O.O=C(O)CNCC1CCC2(CC1)OOC1(O2)C2CC3CC(C2)CC1C3 (stereo not shown) [compound 309]	–	–	9.4	66	9.2	99	–
NC1(C(=O)NCC2CCC3(CC2)OOC2(O3)C3CC4CC(C3)CC2C4)CCCC1 (stereo not shown) [compound 317]	–	–	11.4	73	16.8	100	–
CS(=O)(=O)O.NC(=O)CCNCC1CCC2(CC1)OOC1(O2)C2CC3CC(C2)CC1C3 (stereo not shown) [compound 319]	–	–	13	92	11.2	99.97	–
NC(=O)c1cn(CC2CCC3(CC2)OOC2(O3)C3CC4CC(C3)CC2C4)cn1 (stereo not shown) [compound 320]	–	–	8.6	50	9.6	96	–
CS(=O)(=O)O.NCCOc1ccc(C2CCC3(CC2)OOC2(O3)C3CC4CC(C3)CC2C4)cc1 (stereo not shown) [compound 323]	–	–	14.4	66	14.4	99.95	–
